Laboratory results taken from paper PMC6131205, “Controlling the regioselectivity and stereospecificity of FAD-dependent polyamine oxidases with the use of amine-attached guide molecules as conformational modulators” (Bioscience Reports, 2018).
Where two headings read alike, the source gives them in different places.

How the values were obtained:
[1] = molecular target: T1, Fms1 (Saccharomyces cerevisiae, UniProt P50264); test: Substrate kinetics with recombinant Fms1 (HPLC of reaction products); conditions: for Km: Fms1, text summary of Supplementary Table S2;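 for all read-outs here: recombinant polyamine oxidases incubated with substrate, product amines (putrescine, 1,3-diaminopropane or butane-1,3-diamine) quantified by HPLC after post-column o-phthalaldehyde derivatization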
T1 sequence (P50264 whole entry): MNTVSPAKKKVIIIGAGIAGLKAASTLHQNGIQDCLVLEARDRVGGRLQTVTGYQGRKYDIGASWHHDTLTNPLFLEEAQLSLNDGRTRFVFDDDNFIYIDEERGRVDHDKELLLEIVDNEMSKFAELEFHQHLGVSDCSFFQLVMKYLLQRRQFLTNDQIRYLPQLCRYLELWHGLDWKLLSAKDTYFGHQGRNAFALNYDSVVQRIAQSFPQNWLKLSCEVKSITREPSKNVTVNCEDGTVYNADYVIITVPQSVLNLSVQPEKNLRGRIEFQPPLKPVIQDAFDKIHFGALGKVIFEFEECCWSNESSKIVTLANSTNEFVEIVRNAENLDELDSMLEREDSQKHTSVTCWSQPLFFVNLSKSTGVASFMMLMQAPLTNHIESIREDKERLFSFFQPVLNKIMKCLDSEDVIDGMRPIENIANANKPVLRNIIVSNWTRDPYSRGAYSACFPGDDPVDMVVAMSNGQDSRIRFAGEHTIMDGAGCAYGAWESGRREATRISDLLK
Protocol: (§1) HPLC with post-column o-phthalaldehyde-derivatization was used to determine the concentrations of the reaction products Put and 1,3-diaminopropane (DAP) or butane-1,3-diamine respectively as described in [30]. Fms1 activity was determined essentially as described for human recombinant APAO, but reactions were carried out in 100 mM Glycine-NaOH buffer at pH 9.0 in a water bath at +25°C [29, 30].
The reactions were carried out in 1 triplicate at pH 9.0 in 100 mM Glycine-NaOH at +25°C.
values for N -Ac-MeSpd enantiomers were determined by using substrate concentrations of 25, 50,
for Rac-MeSpd 30 min, (R)-MeSpd 20 min and (S)-MeSpd 40 minutes.
The reactions were carried out in triplicate at pH 9.0 in 100 mM Glycine-NaOH at +25°C.
values for MeSpd enantiomers were determined by using substrate concentrations of 100, 300, 600,
1000, 2000 and 4000 M. Recombinant Fms1 was 3.8 g/reaction and the incubation time 60
incubated for 30 min (half of the reaction time of an ordinary sample). E1 cleavage was monitored

[2] = molecular target: T1, Fms1; test: Fms1 cleavage of (R)- or (S)-MeSpd with or without aromatic aldehyde (E1/E2 velocities); assay type: biochemical, yeast; parameters: made in house
Protocol: Supplementary Table 3 The effects of increasing aromatic aldehyde concentration for the regioselectivity of Fms1 using (R)-MeSpd or (S)-MeSpd as a substrate.
The reactions were carried out in triplicate at pH 9.0 in 100 mM Glycine-NaOH at +25°C with the fixed 1 or 4 mM MeSpd supplemented with increasing concentration 50 or 500 µM of tested aldehyde. Recombinant Fms1 was 1.6 µg/reaction and the incubation time from 15 to 30 minutes.
Linearity of reaction was monitored by using T1/2 controls, i.e. samples that have been incubated for 7.5 to 15 min (half of the reaction time of an ordinary sample). E1 cleavage was monitored by HPLC by measuring Put formation and E2 cleavage by determining butane-1,3-diamine content.
Substrate (R)-MeSpd (S)-MeSpd […]

[3] = molecular target: T2, human recombinant APAO (Homo sapiens, UniProt Q6QHF9); conditions: cited from earlier work
T2 construct: made in house
T2 sequence (Q6QHF9 whole entry): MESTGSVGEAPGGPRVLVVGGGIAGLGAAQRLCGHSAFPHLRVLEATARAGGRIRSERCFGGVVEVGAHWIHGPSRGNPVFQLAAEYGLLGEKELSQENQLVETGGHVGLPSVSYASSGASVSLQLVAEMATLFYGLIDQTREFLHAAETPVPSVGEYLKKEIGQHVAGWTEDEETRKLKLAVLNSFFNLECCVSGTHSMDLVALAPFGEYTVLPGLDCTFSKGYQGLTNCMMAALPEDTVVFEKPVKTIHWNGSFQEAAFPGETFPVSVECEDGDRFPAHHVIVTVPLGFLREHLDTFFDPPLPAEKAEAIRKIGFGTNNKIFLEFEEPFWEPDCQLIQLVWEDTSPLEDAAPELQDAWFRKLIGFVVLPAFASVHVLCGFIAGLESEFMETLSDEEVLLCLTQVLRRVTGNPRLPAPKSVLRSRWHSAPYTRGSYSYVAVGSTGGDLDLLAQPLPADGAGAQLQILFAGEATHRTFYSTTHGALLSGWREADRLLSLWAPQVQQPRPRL

[4] = molecular target: T1, Fms1; test: Fms1 cleavage of (R)- or (S)-MeSpd with or without aromatic aldehyde (E1/E2 velocities); assay type: biochemical, yeast; parameters: made in house; remark: listed apart in the source
[5] = molecular target: T1, Fms1; test: Fms1 cleavage of 1 mM Spd supplemented with aldehydes (E1/E2 regioselectivity); assay type: biochemical, yeast; parameters: made in house; conditions: for effect on cleavage site balance of Spd: Spd plus aldehyde; for E1 cleavage (Put) kcat / E2 cleavage (DAP) kcat / Ratio of E1/E2: fixed 1 mM Spd, aldehyde 25-1000 μM, pH 9.0, 25°C;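 for all read-outs here: recombinant yeast Fms1 reactions in Glycine-NaOH buffer, with products Put and DAP quantified by HPLC using post-column o-phthalaldehyde derivatization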
Protocol: as §1

[6] = molecular target: T3, SMOX (Homo sapiens, UniProt Q9NWM0); test: Substrate properties with human recombinant SMOX; assay type: biochemical; parameters: made in house
T3 sequence (Q9NWM0 whole entry): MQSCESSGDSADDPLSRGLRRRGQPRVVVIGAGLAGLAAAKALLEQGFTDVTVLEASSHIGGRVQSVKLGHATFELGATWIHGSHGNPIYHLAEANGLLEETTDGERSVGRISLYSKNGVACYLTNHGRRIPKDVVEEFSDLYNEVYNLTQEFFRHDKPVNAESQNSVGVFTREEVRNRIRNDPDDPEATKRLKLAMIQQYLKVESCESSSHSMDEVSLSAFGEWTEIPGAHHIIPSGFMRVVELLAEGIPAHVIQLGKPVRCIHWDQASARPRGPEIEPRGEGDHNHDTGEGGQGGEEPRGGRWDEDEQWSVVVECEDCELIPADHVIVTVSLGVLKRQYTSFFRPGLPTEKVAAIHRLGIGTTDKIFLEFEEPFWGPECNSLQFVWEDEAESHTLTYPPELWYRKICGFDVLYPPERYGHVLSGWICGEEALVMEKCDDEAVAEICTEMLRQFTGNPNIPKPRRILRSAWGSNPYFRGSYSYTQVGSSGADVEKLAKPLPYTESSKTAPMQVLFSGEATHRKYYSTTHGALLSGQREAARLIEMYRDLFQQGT
Text: Thus, developing specific inhibitors of SMOX is of crucial importance. In addition, the use of specific substrates for SMOX and APAO would enable distinguishing between APAO and SMOX enzyme activities in vivo.

[7] = molecular target: T2, human recombinant APAO; test: Substrate kinetics with human recombinant APAO (HPLC of reaction products); assay type: biochemical; conditions: for Km / Vmax / kcat: 100 mM Glycine-NaOH pH 9.5, 5 mM DTT; for specificity constant ratio (R)-enantiomer/(S)-enantiomer: APAO, ratio of kcat/Km
[8] = molecular target: T3, SMOX; test: Inhibition of SMOX (Ki, peroxidase-coupled fluorescence, Spm as substrate)
Protocol: Reaction mixtures contained 40 units/ml horseradish peroxidase (Roche), 1 mM homovanillic acid in 100 mM Glycine-NaOH at pH 9.0 supplemented with 40 ng of SMOX. […] Dilutions of fresh H2O2 were used as standard.

[9] = molecular target: T1, Fms1; parameters: made in house; method as in PMID 21067138; conditions: cited from earlier work
[10] = aldehyde A13 50 µM, first of two lines (1 or 4 mM MeSpd, not stated which)
[11] = aldehyde A12 50 µM, first of two lines (1 or 4 mM MeSpd, not stated which)
[12] = aldehyde A12 50 µM, second of two lines (1 or 4 mM MeSpd, not stated which)
[13] = aldehyde A12 500 µM, first of two lines (1 or 4 mM MeSpd, not stated which)
[14] = aldehyde A12 500 µM, second of two lines (1 or 4 mM MeSpd, not stated which)
[15] = aldehyde A13 50 µM, second of two lines (1 or 4 mM MeSpd, not stated which)
[16] = aldehyde A13 500 µM, first of two lines (1 or 4 mM MeSpd, not stated which)
[17] = aldehyde A13 500 µM, second of two lines (1 or 4 mM MeSpd, not stated which)
[18] = Ki (best-fit value, noncompetitive inhibition), GraphPad Prism global fit, supplement
[19] = Ki, non-competitive fit, 25, 50 or 100 µM Spm, pH 9.0, 37°C
[20] = Supplementary Table 1, pH 9.0, 100 mM Glycine-NaOH, 25°C, Put formation
[21] = 1 mM Spm, Glycine-NaOH buffer pH 9.0

C[C@@H](N)CCNCCCCN [(R)-MeSpd, 1,8-diamino-5-azanonane]
Km [1]: > 500 µM
E2 cleavage velocity ([2]; Without aldehyde, 1 mM MeSpd): 4.3 ± 0.9 nmol/mg/min
E1 cleavage velocity ([2]; Without aldehyde, 4 mM MeSpd): 12.5 ± 0.0 nmol/mg/min
E2 cleavage velocity ([2]; Without aldehyde, 4 mM MeSpd): 5.6 ± 0.4 nmol/mg/min
E1 cleavage velocity [2, 10]: 19.1 ± 1.0 nmol/mg/min
specificity constant ratio (R)/(S) of benzaldehyde Schiff base derivatives ([3]; benzaldehyde Schiff base of MeSpd): eight
E1 cleavage velocity ([4]; Without aldehyde, 1 mM MeSpd): 9.5 ± 0.1 nmol/mg/min
E1 cleavage velocity [4, 11]: 10.5 ± 1.1 nmol/mg/min
E2 cleavage velocity [4, 11]: 33.7 ± 4.8 nmol/mg/min
E1 cleavage velocity [4, 12]: 14.0 ± 0.9 nmol/mg/min
E2 cleavage velocity [4, 12]: 31.8 ± 4.3 nmol/mg/min
E1 cleavage velocity [4, 13]: 12.7 ± 1.6 nmol/mg/min
E2 cleavage velocity [4, 13]: 186 ± 24 nmol/mg/min
E1 cleavage velocity [4, 14]: 14.4 ± 0.8 nmol/mg/min
E2 cleavage velocity [4, 14]: 216 ± 31 nmol/mg/min
E2 cleavage velocity [4, 10]: 10.3 ± 3.1 nmol/mg/min
E1 cleavage velocity [4, 15]: 19.1 ± 0.4 nmol/mg/min
E2 cleavage velocity [4, 15]: 9.6 ± 2.2 nmol/mg/min
E1 cleavage velocity [4, 16]: 72.8 ± 2.3 nmol/mg/min
E2 cleavage velocity [4, 16]: 41.5 ± 3.4 nmol/mg/min
E1 cleavage velocity [4, 17]: 63.1 ± 1.0 nmol/mg/min
E2 cleavage velocity [4, 17]: 39.5 ± 2.1 nmol/mg/min

C[C@H](N)CCNCCCCN [(S)-MeSpd, 1,8-diamino-5-azanonane]
Km [1]: > 500 µM
E2 cleavage velocity ([2]; Without aldehyde, 1 mM MeSpd): 7.9 ± 1.1 nmol/mg/min
E1 cleavage velocity ([2]; Without aldehyde, 4 mM MeSpd): 9.6 ± 0.1 nmol/mg/min
E2 cleavage velocity ([2]; Without aldehyde, 4 mM MeSpd): 11.1 ± 1.8 nmol/mg/min
E1 cleavage velocity [2, 10]: 45.6 ± 2.6 nmol/mg/min
E1 cleavage velocity ([4]; Without aldehyde, 1 mM MeSpd): 7.2 ± 0.2 nmol/mg/min
E1 cleavage velocity [4, 11]: 29 ± 1.0 nmol/mg/min
E2 cleavage velocity [4, 11]: 20.2 ± 1.0 nmol/mg/min
E1 cleavage velocity [4, 12]: 31 ± 1.8 nmol/mg/min
E2 cleavage velocity [4, 12]: 23.3 ± 2.0 nmol/mg/min
E1 cleavage velocity [4, 13]: 57 ± 1.1 nmol/mg/min
E2 cleavage velocity [4, 13]: 36 ± 4.2 nmol/mg/min
E1 cleavage velocity [4, 14]: 62 ± 3 nmol/mg/min
E2 cleavage velocity [4, 14]: 41 ± 2.5 nmol/mg/min
E2 cleavage velocity [4, 10]: 8.6 ± 1.8 nmol/mg/min
E1 cleavage velocity [4, 15]: 44.0 ± 1.2 nmol/mg/min
E2 cleavage velocity [4, 15]: 10.0 ± 0.6 nmol/mg/min
E1 cleavage velocity [4, 16]: 66.1 ± 0.0 nmol/mg/min
E2 cleavage velocity [4, 16]: 6.9 ± 0.7 nmol/mg/min
E1 cleavage velocity [4, 17]: 73.5 ± 0.4 nmol/mg/min
E2 cleavage velocity [4, 17]: 7.4 ± 1.3 nmol/mg/min

COc1ccc(C=O)cc1 [A4]
effect on cleavage site balance of Spd [5]: shifted the balance towards E2 cleavage site

O=Cc1cccc(O)c1 [A6]
effect on cleavage site balance of Spd [5]: shifted the balance towards E2 cleavage site

O=Cc1ccccc1[N+](=O)[O-] [A7]
increase of the ratio of the cleavage pathways (E1/E2) ([5]; Spd plus aldehyde vs Spd alone): 5 fold

O=Cc1ccccn1 [A18]
effect on cleavage site balance of Spd [5]: shifted the balance towards E2 cleavage site

C[C@H](CCNCCCCN)NCc1ccccc1 [Bn-(R)-MeSpd]
substrate of SMOX [6]: not being substrates of SMOX
Km [7]: 2 ± 0.1 µM
Vmax [7]: 0.15 ± 0.00 µmol/min/mg
kcat [7]: 0.14 ± 0.00 s⁻¹
specificity constant ratio (R)-enantiomer/(S)-enantiomer [7]: four
Ki [8, 18]: 441 µM
Ki [8, 19]: 441 ± 32 µM

C[C@@H](CCNCCCCN)NCc1ccccc1 [Bn-(S)-MeSpd]
substrate of SMOX [6]: not being substrates of SMOX
Km [7]: 1.6 ± 0.6 µM
Vmax [7]: 0.03 ± 0.00 µmol/min/mg
kcat [7]: 0.03 ± 0.00 s⁻¹
Ki [8, 18]: 155 µM
Ki [8, 19]: 155 ± 13 µM

C[C@H](CCNCCCCN)NC(=O)c1ccccc1 [Bz-(R)-MeSpd]
Km [7]: 1.2 ± 0.7 µM
Vmax [7]: 5.02 ± 0.74 µmol/min/mg
kcat [7]: 4.6 ± 0.7 s⁻¹
Ki [8, 18]: 589 µM
Ki [8, 19]: 589 ± 58 µM

C[C@@H](CCNCCCCN)NC(=O)c1ccccc1 [Bz-(S)-MeSpd]
Km [7]: 0.2 ± 0.2 µM
Vmax [7]: 0.03 ± 0.00 µmol/min/mg
kcat [7]: 0.03 ± 0.00 s⁻¹
Ki [8, 18]: 846 µM
Ki [8, 19]: 846 ± 82 µM

O=Cc1ccccc1O [C00002]
E1 cleavage (Put) kcat [5]: 0.54 ± 0.01 s⁻¹
E2 cleavage (DAP) kcat [5]: 0.08 ± 0.00 s⁻¹
Ratio of E1/E2 [5]: 5.2

O=Cc1cccc(O)c1 [C00003]
E1 cleavage (Put) kcat [5]: 0.31 ± 0.01 s⁻¹
E2 cleavage (DAP) kcat [5]: 0.47 ± 0.01 s⁻¹
Ratio of E1/E2 [5]: 0.22

O=Cc1ccc(O)cc1 [C00004]
E1 cleavage (Put) kcat [5]: 0.11 ± 0.00 s⁻¹
E2 cleavage (DAP) kcat [5]: 0.03 ± 0.00 s⁻¹
Ratio of E1/E2 [5]: 118

O=Cc1ccncc1 [C00005]
E1 cleavage (Put) kcat [5]: 7.4 ± 0.2 s⁻¹
E2 cleavage (DAP) kcat [5]: 0.19 ± 0.01 s⁻¹
Ratio of E1/E2 [5]: 12.9

O=Cc1cccnc1 [C00006]
E1 cleavage (Put) kcat [5]: 5.5 ± 0.1 s⁻¹
E2 cleavage (DAP) kcat [5]: 0.48 ± 0.01 s⁻¹
Ratio of E1/E2 [5]: 8.0

O=Cc1ccccn1 [C00007]
E1 cleavage (Put) kcat [5]: 0.49 ± 0.01 s⁻¹
E2 cleavage (DAP) kcat [5]: 0.49 ± 0.01 s⁻¹
Ratio of E1/E2 [5]: 2.2

Cc1ncc(CO)c(C=O)c1O [C00008]
E1 cleavage (Put) kcat [5]: 1.13 ± 0.03 s⁻¹

COc1ccc(C=O)cc1 [C00009]
E1 cleavage (Put) kcat [5]: 0.13 ± 0.00 s⁻¹
E2 cleavage (DAP) kcat [5]: 0.22 ± 0.00 s⁻¹

O=CC1CCCCC1 [C00010]
E1 cleavage (Put) kcat [5]: 1.41 ± 0.04 s⁻¹
E2 cleavage (DAP) kcat [5]: 0.43 ± 0.01 s⁻¹
Ratio of E1/E2 [5]: 5.4

O=Cc1ccccc1[N+](=O)[O-] [C00011]
E1 cleavage (Put) kcat [5]: 1.06 ± 0.04 s⁻¹
E2 cleavage (DAP) kcat [5]: 0.03 ± 0.00 s⁻¹

O=Cc1ccc([N+](=O)[O-])cc1 [C00012]
E1 cleavage (Put) kcat [5]: 0.37 ± 0.00 s⁻¹
E2 cleavage (DAP) kcat [5]: 0.05 ± 0.00 s⁻¹
Ratio of E1/E2 [5]: 6.4

CC(=O)NC(C)CCNCCCCN (stereo not shown) [N1-Ac-MeSpd, N8-Acetyl-1,8-diamino-5-azanonane]
Vmax [1, 20]: 50 ± 3 nmol/min/mg
kcat [1, 20]: 0.05 ± 0.00 s⁻¹

CC(=O)N[C@H](C)CCNCCCCN [N^1-Ac-(R)-MeSpd]
Vmax [1, 20]: 61 ± 4 nmol/min/mg
kcat [1, 20]: 0.06 ± 0.00 s⁻¹
specificity constant ratio (R)-enantiomer/(S)-enantiomer [7]: 13
Km [3]: 95 µM
kcat [3]: 9 s⁻¹

CC(=O)N[C@@H](C)CCNCCCCN [N^1-Ac-(S)-MeSpd]
Vmax [1, 20]: 22 ± 1 nmol/min/mg
kcat [1, 20]: 0.02 ± 0.00 s⁻¹
Km [3]: 170 µM
kcat [3]: 1.2 s⁻¹

CC(=O)NCCCNCCCCN [N^1-AcSpd, reference compound]
kcat [1, 20]: 65 ± 2 s⁻¹

CC(=O)NCCCNCCCCNCCCN [N^1-AcSpm]
kcat [9]: 15.1 ± 0.4 s⁻¹

C[C@H](CCNCCCCN)NC(=O)c1ccncc1 [P4-(R)-MeSpd]
Km [7]: 3.6 ± 0.6 µM
Vmax [7]: 5.59 ± 0.60 µmol/min/mg
kcat [7]: 5.2 ± 0.6 s⁻¹
Ki [8, 18]: 1280 µM
Ki [8, 19]: 1280 ± 111 µM

C[C@@H](CCNCCCCN)NC(=O)c1ccncc1 [P4-(S)-MeSpd]
Km [7]: 0.8 ± 0.2 µM
Vmax [7]: 0.02 ± 0.00 µmol/min/mg
kcat [7]: 0.01 ± 0.00 s⁻¹
Ki [8, 18]: 1020 µM
Ki [8, 19]: 1020 ± 79 µM

NCCCCNCCCN [Spd, spermidine, reference compound]
Ratio of E1/E2 ([1]; substrate alone, no aldehyde, pH 9.0, 25°C): 7.5

NCCCNCCCCNCCCN [Spm, spermine, reference compound]
reaction velocity ([1]; 1 mM Spm, 100 mM Tris/HCl or 170 mM Bis/Tris buffers pH 9.0): 36.1 ± 0.24 µmol/mg/min
pH of highest reaction velocity ([1]; 1 mM Spm, 170 mM Bis/Tris): 9.25
reaction velocity in comparison with rate at the optimum pH ([1]; 1 mM Spm, 170 mM Bis/Tris, pH 8.0): ~ 15%
reaction velocity in comparison with rate at the optimum pH ([1]; 1 mM Spm, 170 mM Bis/Tris, pH 8.5): 60%
activity of recombinant Fms1 [1, 21]: 30.9 ± 0.45 µmol/mg/min
kcat [1, 21]: 30.3 ± 0.44 s⁻¹
kcat [9]: 39.0 ± 1.5 s⁻¹
